Test results taken from the NIST ThermoML archive (doi:10.1021/acs.jced.7b00769).

Experiment: xn = mol fraction of the nth substance listed
Settings: Gas, isochoric method

FC(F)(F)/C=C/Cl [(E)-1-chloro-3,3,3-trifluoroprop-1-ene] + CC(C)C
Settings	specific volume [m3/kg]
303.15 K, 113.3 kPa, x2 = 0.125	0.174
303.15 K, 186.5 kPa, x2 = 0.564	0.1429
308.15 K, 115.4 kPa, x2 = 0.125	0.1741
308.15 K, 190.1 kPa, x2 = 0.564	0.1429
313.15 K, 117.5 kPa, x2 = 0.125	0.1741
313.15 K, 193.7 kPa, x2 = 0.564	0.143
313.15 K, 197.4 kPa, x2 = 0.453	0.1261
318.15 K, 119.6 kPa, x2 = 0.125	0.1742
318.15 K, 197.5 kPa, x2 = 0.564	0.143
318.15 K, 200.9 kPa, x2 = 0.453	0.1262
318.15 K, 340.9 kPa, x2 = 0.746	0.0926
323.15 K, 121.8 kPa, x2 = 0.125	0.1742
323.15 K, 200.9 kPa, x2 = 0.564	0.143
323.15 K, 204.5 kPa, x2 = 0.453	0.1262
323.15 K, 347.6 kPa, x2 = 0.746	0.0926
328.15 K, 123.8 kPa, x2 = 0.125	0.1742
328.15 K, 204.3 kPa, x2 = 0.564	0.143
328.15 K, 208 kPa, x2 = 0.453	0.1262
328.15 K, 353.9 kPa, x2 = 0.746	0.0926
333.15 K, 125.8 kPa, x2 = 0.125	0.1743
333.15 K, 207.8 kPa, x2 = 0.564	0.1431
333.15 K, 211.4 kPa, x2 = 0.453	0.1262
333.15 K, 360.6 kPa, x2 = 0.746	0.0926
333.15 K, 648.1 kPa, x2 = 0.865	0.0535
338.15 K, 128.2 kPa, x2 = 0.125	0.1743
338.15 K, 211.1 kPa, x2 = 0.564	0.1431
338.15 K, 214.9 kPa, x2 = 0.453	0.1263
338.15 K, 366.9 kPa, x2 = 0.746	0.0926
338.15 K, 576.1 kPa, x2 = 0.644	0.0499
338.15 K, 661.4 kPa, x2 = 0.865	0.0535
343.15 K, 130.2 kPa, x2 = 0.125	0.1744
343.15 K, 214.6 kPa, x2 = 0.564	0.1431
343.15 K, 218.5 kPa, x2 = 0.453	0.1263
343.15 K, 373.2 kPa, x2 = 0.746	0.0927
343.15 K, 587.5 kPa, x2 = 0.644	0.0499
343.15 K, 674.5 kPa, x2 = 0.865	0.0536
348.15 K, 132.2 kPa, x2 = 0.125	0.1744
348.15 K, 218 kPa, x2 = 0.564	0.1432
348.15 K, 222 kPa, x2 = 0.453	0.1263
348.15 K, 379.5 kPa, x2 = 0.746	0.0927
348.15 K, 598.7 kPa, x2 = 0.644	0.0499
348.15 K, 687.5 kPa, x2 = 0.865	0.0536
353.15 K, 134.4 kPa, x2 = 0.125	0.1744
353.15 K, 221.4 kPa, x2 = 0.564	0.1432
353.15 K, 225.5 kPa, x2 = 0.453	0.1264
353.15 K, 385.8 kPa, x2 = 0.746	0.0927
353.15 K, 609.8 kPa, x2 = 0.644	0.0499
353.15 K, 700.5 kPa, x2 = 0.865	0.0536
358.15 K, 136.3 kPa, x2 = 0.125	0.1745
358.15 K, 224.6 kPa, x2 = 0.564	0.1432
358.15 K, 229 kPa, x2 = 0.453	0.1264
358.15 K, 391.8 kPa, x2 = 0.746	0.0927
358.15 K, 620.8 kPa, x2 = 0.644	0.0499
358.15 K, 713.3 kPa, x2 = 0.865	0.0536
363.15 K, 138.3 kPa, x2 = 0.125	0.1745
363.15 K, 228.1 kPa, x2 = 0.564	0.1433
363.15 K, 232.1 kPa, x2 = 0.453	0.1264
363.15 K, 398.1 kPa, x2 = 0.746	0.0927
363.15 K, 631.1 kPa, x2 = 0.644	0.05
363.15 K, 726.1 kPa, x2 = 0.865	0.0536
368.15 K, 140.4 kPa, x2 = 0.125	0.1745
368.15 K, 231.5 kPa, x2 = 0.564	0.1433
368.15 K, 235.6 kPa, x2 = 0.453	0.1264
368.15 K, 404.2 kPa, x2 = 0.746	0.0928
368.15 K, 642.6 kPa, x2 = 0.644	0.05
368.15 K, 738.7 kPa, x2 = 0.865	0.0536
373.15 K, 142.3 kPa, x2 = 0.125	0.1746
373.15 K, 234.8 kPa, x2 = 0.564	0.1433
373.15 K, 239.1 kPa, x2 = 0.453	0.1265
373.15 K, 410.7 kPa, x2 = 0.746	0.0928
373.15 K, 653.2 kPa, x2 = 0.644	0.05
373.15 K, 751.4 kPa, x2 = 0.865	0.0536
378.15 K, 144.4 kPa, x2 = 0.125	0.1746
378.15 K, 238.2 kPa, x2 = 0.564	0.1434
378.15 K, 242.6 kPa, x2 = 0.453	0.1265
378.15 K, 416.9 kPa, x2 = 0.746	0.0928
378.15 K, 664.1 kPa, x2 = 0.644	0.05
378.15 K, 763.9 kPa, x2 = 0.865	0.0536
383.15 K, 146.5 kPa, x2 = 0.125	0.1747
383.15 K, 241.7 kPa, x2 = 0.564	0.1434
383.15 K, 246.4 kPa, x2 = 0.453	0.1265
383.15 K, 423.2 kPa, x2 = 0.746	0.0928
383.15 K, 675 kPa, x2 = 0.644	0.05
383.15 K, 776.5 kPa, x2 = 0.865	0.0536

F/C=C\C(F)(F)F [(Z)-1,3,3,3-tetrafluoro-1-propene] + CC(C)C
Settings	specific volume [m3/kg]
303.15 K, 145.9 kPa, x2 = 0.118	0.152
303.15 K, 155.7 kPa, x2 = 0.222	0.1514
303.15 K, 206.5 kPa, x2 = 0.427	0.127
303.15 K, 213.5 kPa, x2 = 0.51	0.1286
308.15 K, 148.7 kPa, x2 = 0.118	0.152
308.15 K, 158.6 kPa, x2 = 0.222	0.1514
308.15 K, 210.5 kPa, x2 = 0.427	0.127
308.15 K, 217.4 kPa, x2 = 0.51	0.1286
313.15 K, 151.4 kPa, x2 = 0.118	0.1521
313.15 K, 161.5 kPa, x2 = 0.222	0.1515
313.15 K, 214.4 kPa, x2 = 0.427	0.1271
313.15 K, 221.3 kPa, x2 = 0.51	0.1286
313.15 K, 398.1 kPa, x2 = 0.658	0.0757
318.15 K, 154 kPa, x2 = 0.118	0.1521
318.15 K, 164.3 kPa, x2 = 0.222	0.1515
318.15 K, 218.3 kPa, x2 = 0.427	0.1271
318.15 K, 225.2 kPa, x2 = 0.51	0.1287
318.15 K, 362.3 kPa, x2 = 0.725	0.0906
318.15 K, 406.6 kPa, x2 = 0.658	0.0758
323.15 K, 156.8 kPa, x2 = 0.118	0.1521
323.15 K, 167.2 kPa, x2 = 0.222	0.1515
323.15 K, 222.2 kPa, x2 = 0.427	0.1271
323.15 K, 229.2 kPa, x2 = 0.51	0.1287
323.15 K, 369.1 kPa, x2 = 0.725	0.0906
323.15 K, 414.5 kPa, x2 = 0.658	0.0758
328.15 K, 159.4 kPa, x2 = 0.118	0.1522
328.15 K, 170 kPa, x2 = 0.222	0.1516
328.15 K, 226 kPa, x2 = 0.427	0.1271
328.15 K, 233.1 kPa, x2 = 0.51	0.1287
328.15 K, 375.8 kPa, x2 = 0.725	0.0906
328.15 K, 423.1 kPa, x2 = 0.658	0.0758
333.15 K, 162 kPa, x2 = 0.118	0.1522
333.15 K, 172.7 kPa, x2 = 0.222	0.1516
333.15 K, 229.8 kPa, x2 = 0.427	0.1272
333.15 K, 237 kPa, x2 = 0.51	0.1287
333.15 K, 382.5 kPa, x2 = 0.725	0.0907
333.15 K, 430.7 kPa, x2 = 0.658	0.0758
338.15 K, 164.6 kPa, x2 = 0.118	0.1522
338.15 K, 175.4 kPa, x2 = 0.222	0.1516
338.15 K, 233.6 kPa, x2 = 0.427	0.1272
338.15 K, 240.9 kPa, x2 = 0.51	0.1288
338.15 K, 389.1 kPa, x2 = 0.725	0.0907
338.15 K, 438.4 kPa, x2 = 0.658	0.0758
343.15 K, 167.2 kPa, x2 = 0.118	0.1523
343.15 K, 178.2 kPa, x2 = 0.222	0.1517
343.15 K, 237.3 kPa, x2 = 0.427	0.1272
343.15 K, 244.7 kPa, x2 = 0.51	0.1288
343.15 K, 395.8 kPa, x2 = 0.725	0.0907
343.15 K, 446 kPa, x2 = 0.658	0.0758
348.15 K, 169.8 kPa, x2 = 0.118	0.1523
348.15 K, 180.8 kPa, x2 = 0.222	0.1517
348.15 K, 241.1 kPa, x2 = 0.427	0.1272
348.15 K, 248.6 kPa, x2 = 0.51	0.1288
348.15 K, 402.5 kPa, x2 = 0.725	0.0907
348.15 K, 453.6 kPa, x2 = 0.658	0.0759
353.15 K, 172.5 kPa, x2 = 0.118	0.1523
353.15 K, 183.7 kPa, x2 = 0.222	0.1517
353.15 K, 244.7 kPa, x2 = 0.427	0.1273
353.15 K, 252.4 kPa, x2 = 0.51	0.1288
353.15 K, 409.1 kPa, x2 = 0.725	0.0907
353.15 K, 461.2 kPa, x2 = 0.658	0.0759
358.15 K, 175.1 kPa, x2 = 0.118	0.1524
358.15 K, 186.5 kPa, x2 = 0.222	0.1518
358.15 K, 248.6 kPa, x2 = 0.427	0.1273
358.15 K, 256.3 kPa, x2 = 0.51	0.1289
358.15 K, 415.6 kPa, x2 = 0.725	0.0908
358.15 K, 468.5 kPa, x2 = 0.658	0.0759
363.15 K, 177.7 kPa, x2 = 0.118	0.1524
363.15 K, 189.4 kPa, x2 = 0.222	0.1518
363.15 K, 252.3 kPa, x2 = 0.427	0.1273
363.15 K, 260.1 kPa, x2 = 0.51	0.1289
363.15 K, 422.1 kPa, x2 = 0.725	0.0908
363.15 K, 476 kPa, x2 = 0.658	0.0759
368.15 K, 180.3 kPa, x2 = 0.118	0.1524
368.15 K, 192.1 kPa, x2 = 0.222	0.1518
368.15 K, 256 kPa, x2 = 0.427	0.1274
368.15 K, 263.9 kPa, x2 = 0.51	0.1289
368.15 K, 428.6 kPa, x2 = 0.725	0.0908
368.15 K, 483.4 kPa, x2 = 0.658	0.0759
373.15 K, 182.9 kPa, x2 = 0.118	0.1525
373.15 K, 194.9 kPa, x2 = 0.222	0.1519
373.15 K, 259.8 kPa, x2 = 0.427	0.1274
373.15 K, 267.8 kPa, x2 = 0.51	0.129
373.15 K, 435.2 kPa, x2 = 0.725	0.0908
373.15 K, 490.9 kPa, x2 = 0.658	0.0759
378.15 K, 185.5 kPa, x2 = 0.118	0.1525
378.15 K, 197.7 kPa, x2 = 0.222	0.1519
378.15 K, 263.6 kPa, x2 = 0.427	0.1274
378.15 K, 271.7 kPa, x2 = 0.51	0.129
378.15 K, 441.7 kPa, x2 = 0.725	0.0908
378.15 K, 498.2 kPa, x2 = 0.658	0.076
383.15 K, 188.1 kPa, x2 = 0.118	0.1525
383.15 K, 200.5 kPa, x2 = 0.222	0.1519
383.15 K, 267.4 kPa, x2 = 0.427	0.1274
383.15 K, 275.5 kPa, x2 = 0.51	0.129
383.15 K, 448.3 kPa, x2 = 0.725	0.0909
383.15 K, 505.8 kPa, x2 = 0.658	0.076
